Experimental findings from patent US9144557B2, “Hematopoietic growth factor mimetic small molecule compounds and their uses” (Ligand Pharmaceuticals Inc., priority 2009, dated 2015) are described below.

Structures are written as SMILES.

The subject of the test is UT7/EPO Cell line. Nature of the test: Cell Proliferation Assay (UT7/EPO, ViaLight Plus). It counts as cell-based, human. The following applies: proliferative effect; compounds at 10 uM; UT7/EPO cells starved of EPO overnight; 72 hours at 37° C.; ViaLight Plus kit. Summed up: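 UT7/EPO human leukemia cells (endogenous EPO receptor, EPO-dependent growth) were EPO-starved overnight, then exposed to compounds at 10 uM for 72 hours at 37° C. Proliferation was read out by ATP-based luminescence (ViaLight Plus).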

For `Cn1ccc(C(=O)Nc2ccc(-n3cc(C4CC4)c4cc(NC(=O)c5ccc(N6CCC(O)CC6)cc5)ccc43)cc2)c1` [Compound 1070, N-(4-(3-cyclopropyl-5-(4-(4-hydroxypiperidin-1-yl)benzamido)-1H-indol-1-yl)phenyl)-1-methyl-1H-pyrrole-3-carboxamide], the “Activity (%)” value came to 15%. As for `CN(C)c1ccc(C(=O)Nc2ccc(-c3nc4cc(NC(=O)c5ccc(N(C)C)cc5)ccc4[nH]3)cc2)cc1` [Compound 1700, 4-Dimethylamino-N-(4-(5-(4-dimethylaminobenzamido)-1H-benzimidazol-2-yl)phenyl)benzamide], the “Activity (%)” value was found to be 17%. Turning to `COC(=O)c1ccc(C(=O)Nc2ccc3[nH]c(-c4ccccc4)nc3c2)cc1` [Compound 1705, Methyl 4-(2-phenyl-1H-benzimidazol-5-ylcarbamoyl)-benzoate], the “Activity (%)” value is given as 12%.

For the compound `CN1CCN(c2ccc3nc(-c4ccc5[nH]c(-c6ccccc6)nc5c4)[nH]c3c2)CC1` [Compound 1710, 5-(6-(4-Methylpiperazino)-1H-benzimidazol-2-yl)-2-phenyl-1H-benzimidazole], the “Activity (%)” value came to 11%. `Nc1ccc(C(=O)Nc2ccc(-c3nc4c(Cl)c(NC(=O)c5ccc(N)cc5)ccc4[nH]3)cc2)cc1` [Compound 1715, 4-Amino-N-(4-(5-(4-aminobenzamido)-4-chloro-1H-benzimidazol-2-yl)phenyl)benzamide]: the “Activity (%)” value stood at 10%. For `O=C(O)c1ccc(-c2nc3cc(NC(=O)c4ccc(N5CCCC5)cc4)ccc3[nH]2)cc1` [Compound 1719], the “Activity (%)” value was 17%. In the case of `COc1cccc(C(=O)Nc2ccc3[nH]c(-c4ccccc4)nc3c2)c1` [Compound 1724, 3-Methoxy-N-(2-phenyl-1H-benzimidazol-5-yl)benzamide], the “Activity (%)” value worked out at 13%.

With `COc1ccc(-c2nc3cc(NC(=O)c4ccc(-n5cccc5)cc4)ccc3[nH]2)cc1` [Compound 1729, N-(2-(4-Methoxyphenyl)-1H-benzimidazol-5-yl)-4-pyrrolylbenzamide], the “Activity (%)” value amounted to 14%. The result for `CN(C)c1ccc(C(=O)Nc2ccc3[nH]c(-c4ccc5c(ccn5C)c4)nc3c2)cc1` [Compound 1734, N-(2-(1-Methyl-1H-indol-5-yl)benzimidazol-5-yl)-4-dimethylaminobenzamide] reads 20%; that for `COC(=O)c1ccc(C(=O)Nc2ccc3[nH]c(-c4ccc(OC)cc4)nc3c2)cc1` [Compound 1739, Methyl 4-(2-(4-methoxyphenyl)-1H-benzimidazol-5-ylcarbamoyl)-benzoate], 19%; that for `CN(C)c1ccc(-c2nc3cc(-c4ccc5[nH]c(-c6ccc(N(C)C)cc6)nc5c4)ccc3[nH]2)cc1` [Compound 1744, 4,4′-(5,5′-Bibenzimidazole-2,2′-diyl)bis(N,N-dimethylaniline)], 11%. The result for `O=C(Nc1ccccc1)c1ccc(-c2nc3cc(NC(=O)c4ccccc4)ccc3[nH]2)cc1` [Compound 1747, N-Phenyl-4-(5-benzamido-1H-benzimidazol-2-yl)benzamide] reads 19%.
